Publication PMC4843002, “Identification of pyrazolopyridazinones as PDEδ inhibitors” (Nature Communications, 2016)

Tests used:
[1] = mouse, in vivo
Description: (§10) Determination of pharmacokinetic properties in vivo
50% physiological saline / 40% water.
(§11) The regression equation of the calibration curve was used to calculate plasma concentrations. Pharmacokinetic parameters were calculated using the PKSolver
(§12) Animal experiments and care were conducted at Synovo GmbH (Tübingen, Germany) in accordance with the guidelines of institutional authorities and approved

[2] = system: adenylyl cyclase (activator effect); assay: Cerep enzyme and cell-based assays; format: biochemical; conditions: 5 µM
[3] = system: MIA PaCa-2 cells; assay: RTCA growth profile; format: cell-based, human; conditions: MIA PaCa-2, doses higher than 3 μM
Description: (§1) RTCA was performed using 16-well E-plates on the Dual Plate xCELLigence instrument (Roche Applied Science, Indianapolis, IN). This system measures a dimensionless parameter called cell index, which evaluates the ionic environment at an electrode/solution interface and integrates information on cell number. Depending on the cell line 5 × 10^3–1 × 10^4 cells were plated in each well of the 16-well plates in 200 μl of cell culture medium. After seeding, cells were allowed to settle for 30 min at room temperature before being inserted into the xCELLigence instrument in a humidified incubator at 37 °C with 10% CO2. For RTCA experiments assaying cells stably expressing the inducible shRNA transgene, cells were seeded onto the E-plates in medium supplemented with 200 ng ml^−1 doxycycline. […] The small-molecule inhibitors were added at indicated time points and in the indicated concentrations. […] All assays were performed in duplicates. The cell index was normalized to 1 at the time point of drug administration.

[4] = system: Panc-Tu-I cells; assay: RTCA growth profile; format: cell-based, human
Description: as §1

[5] = system: Capan-1 cells; assay: RTCA growth profile; format: cell-based, human; conditions: Capan-1, doses up to 24 μM
Description: as §1

[6] = system: ATPase (Na+/K+); assay: Cerep enzyme and cell-based assays; format: biochemical; conditions: 5 µM
[7] = system: Erk phosphorylation; assay: western blot, Erk phosphorylation in PANC-1
Description: To examine whether PDEδ inhibition by Deltarasin and Deltazinone 1 downregulates the signal transduction via these pathways, we examined the phosphorylation of extracellular signal regulated kinase (Erk) and S6 Ribosomal Protein (S6P) in the oncogenic KRas-dependent Panc-Tu-1 and KRas-independent PANC-1 cells. […] Cells were lysed with RIPA-buffer (20 mM Tris pH 7.5, 150 mM NaCl, 0.5 mM Na2 EDTA, 1 % sodium deoxycholate, 0.1% sodium dodecyl sulfate, 1% IGEPAL supplemented with Complete Mini EDTA-free protease inhibitor (Roche Applied Science) and 1% phosphatase inhibitor cocktail 2 and 3 (P5726 and P0044, Sigma Aldrich), scraped off after 5 min on ice and centrifuged at 14,000g for 20 min at 4 °C. SDS–polyacrylamide gel electrophoresis was carried out with 10–25 μg of whole-cell lysate from each sample. The gels were blotted onto polyvinylidene difluoride membrane (Millipore) and blocked for 1 h at room temperature. […] Blots were scanned on a LI-COR Odyssey imaging system.
Western blots were quantified using ImageJ. The background of the blots was subtracted by applying the rolling ball subtraction with a radius of 50 pixels. Afterwards the integrated intensity of the bands was measured.

[8] = target: T1, NK2 (h) (Homo sapiens, UniProt P21452); assay: Cerep binding, agonist radioligand; conditions: read-out: % Inhibition of Control Specific Binding
T1 construct: purchased Eurofins Pharma Discovery Services (CEREP diversity panel)

[9] = target: T2, phosphatase 1B (h) (PTP1B) (Homo sapiens, UniProt P18031); assay: Cerep enzyme and cell-based assays; format: biochemical; conditions: read-out: % Inhibition of Control Values
T2 construct: Eurofins Pharma Discovery Services (CEREP diversity panel, outsourced assay)

[10] = system: P2Y; assay: Cerep binding, agonist radioligand; conditions: 5 µM
[11] = in vivo; conditions: female, NMRI, mouse, 3 mg/kg
Description: as §10
50% physiological saline / 40% water.
as §11, §12

[12] = target: T3, AT1 (h) (Homo sapiens, UniProt P30556); assay: Cerep binding, antagonist radioligand; conditions: read-out: % Inhibition of Control Specific Binding
T3 construct: purchased Eurofins Pharma Discovery Services (CEREP diversity panel)

[13] = system: Panc-Tu-I cells; assay: long-term time-lapse microscopy; conditions: 72 h, 5 μM Deltarasin or 10 μM Deltazinone 1
[14] = target: T4, GABA transaminase (Rattus norvegicus, UniProt P50554); assay: Cerep enzyme and cell-based assays; format: biochemical; conditions: read-out: % Inhibition of Control Values
T4 construct: Eurofins Pharma Discovery Services (CEREP diversity panel, outsourced assay)

[15] = system: Panc-Tu-I; assay: CellTiter-Glo cell viability; format: cell-based, human
Description: (§2) Biochemical and Pharmacological Assays
(§3) Determination of cell viability using CellTiter-Glo®
(§4) Cells were seeded on day 1 at 500 cells per well to assure assay linearity and optimal signal intensity. After incubation for 24h in humidified incubator at 37°C, 5% CO2, compounds / DMSO were added at different concentrations. Cells were further incubated for 72 h at 37°C and 5% CO2. Cells treated with the compound vehicle (DMSO) […].
(§5) At day 5 the CellTiter-Glo® Reagent was prepared according to the instructions of the manufacturer (Promega): The Reagent was mixed 1:1 with cell culture medium.
(§6) Thereon, mixture and assay plates were equilibrated at room temperature for 20 min.
(§7) Equal volumes of the reagent-medium-mixture were added to the volume of culture medium present in each well. The plates were mixed at 200 rpm for 2 minutes on an orbital shaker and afterwards incubated at room temperature for 10 minutes.
(§8) Following incubation the luminescence was recorded on a Victor microplate reader (Perkin Elmer) using a 200 ms integration time. The data was analyzed with Excel using the XLFIT Plugin (dose response Fit 205) for IC50-determination.
(§9) As quality control the Z´ -factor was calculated from 16 positive and negative control values. Only assay results showing a Z´ -factor ≥ 0.5 were used for further analysis.

[16] = system: PANC-1; assay: CellTiter-Glo cell viability; format: cell-based, human; conditions: PANC-1, CellTiter-Glo, n = 10
Description: as §2, §3, §4, §5, §6, §7, §8, §9

[17] = target: T5, tyrosine hydroxylase (Rattus norvegicus, UniProt P04177); assay: Cerep enzyme and cell-based assays; format: biochemical; conditions: read-out: % Inhibition of Control Values
T5 construct: Eurofins Pharma Discovery Services (CEREP diversity panel, outsourced assay)

[18] = target: T6, acetylcholinesterase (h) (Homo sapiens, UniProt P22303); assay: Cerep enzyme and cell-based assays; format: biochemical; conditions: read-out: % Inhibition of Control Values
T6 construct: Eurofins Pharma Discovery Services (CEREP diversity panel, outsourced assay)

[19] = target: T7, CENP-E (h) (Homo sapiens, UniProt Q02224); assay: Cerep enzyme and cell-based assays; format: biochemical; conditions: read-out: % Inhibition of Control Values
T7 construct: Eurofins Pharma Discovery Services (CEREP diversity panel, outsourced assay)

[20] = target: T8, HDAC11 (h) (Homo sapiens, UniProt Q96DB2); assay: Cerep enzyme and cell-based assays; format: biochemical; conditions: read-out: % Inhibition of Control Values
T8 construct: Eurofins Pharma Discovery Services (CEREP diversity panel, outsourced assay)

[21] = target: T9, sirtuin 1 (h) (inhibitor effect) (Homo sapiens, UniProt Q96EB6); assay: Cerep enzyme and cell-based assays; format: biochemical; conditions: read-out: % Inhibition of Control Values
T9 construct: Eurofins Pharma Discovery Services (CEREP diversity panel, outsourced assay)

[22] = target: T10, MAO-A (h) (Homo sapiens, UniProt P21397); assay: Cerep enzyme and cell-based assays; format: biochemical; conditions: read-out: % Inhibition of Control Values
T10 construct: Eurofins Pharma Discovery Services (CEREP diversity panel, outsourced assay)

[23] = target: T11, MAO-B (h) recombinant enzyme (Homo sapiens, UniProt P27338); assay: Cerep enzyme and cell-based assays; format: biochemical; conditions: read-out: % Inhibition of Control Values
T11 construct: Eurofins Pharma Discovery Services (CEREP diversity panel, outsourced assay)

[24] = target: T12, interaction between mCitrine-KRas and mCherry-PDEδ (Homo sapiens, UniProt O43924); assay: FLIM-FRET, mCitrine-KRas/mCherry-PDEδ in MDCK cells after Bryostatin; format: cell-based, canine; conditions: 5 μM inhibitor after 1 μM Bryostatin-1, MDCK cells
T12 construct: expressed in transfected cells; host or cells: MDCK cells, transient transfection
Description: To measure whether both inhibitors also affect the interaction of KRas with PDEδ, MDCK cells were transiently transfected with mCitrine-KRas and mCherry-PDEδ. […] To increase the fraction of KRas that interacts with PDEδ, the Protein Kinase C (PKC) activator Bryostatin, which induces serine (S181) phosphorylation on KRas[17], was applied, resulting in a reduced electrostatic interaction with the PM and increased cytosolic pool of mCitrine-KRas.
Fluorescence lifetime images were acquired using a confocal laser-scanning microscope (FV1000, Olympus) equipped with a time-correlated single-photon counting module (LSM Upgrade Kit, Picoquant). For detection of the donor (mCitrine), the sample was excited using a 470-nm diode laser (LDH 470, Picoquant) at a 36-MHz repetition frequency. […] Photons were detected using a single-photon counting avalanche photodiode (PDM Series, MPD) and timed using a single-photon counting module (PicoHarp 300, Picoquant).
Intensity thresholds were applied to segment the cells from the background fluorescence. Data were analysed via global analysis[23] to obtain images of the molar fraction (α) of interacting mCitrine-Rheb with mCherry-PDEδ. […] Dose–response relationships were determined by plotting obtained α per addition, using equation:

[25] = target: T13, HDAC6 (h) (Homo sapiens, UniProt Q9UBN7); assay: Cerep enzyme and cell-based assays; format: biochemical; conditions: read-out: % Inhibition of Control Values
T13 construct: Eurofins Pharma Discovery Services (CEREP diversity panel, outsourced assay)

[26] = Homo sapiens, 72 h, read-out: IC50 anti-proliferative activity

T1 sequence (P21452 whole entry): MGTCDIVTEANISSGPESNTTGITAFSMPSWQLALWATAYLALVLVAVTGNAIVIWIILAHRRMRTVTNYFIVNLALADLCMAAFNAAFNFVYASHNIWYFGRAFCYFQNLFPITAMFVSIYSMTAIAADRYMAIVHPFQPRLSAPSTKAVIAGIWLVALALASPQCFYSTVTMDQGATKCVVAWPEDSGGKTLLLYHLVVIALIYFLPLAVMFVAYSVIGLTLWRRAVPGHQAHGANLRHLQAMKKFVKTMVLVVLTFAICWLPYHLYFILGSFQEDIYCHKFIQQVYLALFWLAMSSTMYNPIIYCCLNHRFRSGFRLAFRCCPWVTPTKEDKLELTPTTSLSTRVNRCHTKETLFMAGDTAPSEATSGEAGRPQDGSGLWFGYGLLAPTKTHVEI
T3 sequence (P30556 whole entry): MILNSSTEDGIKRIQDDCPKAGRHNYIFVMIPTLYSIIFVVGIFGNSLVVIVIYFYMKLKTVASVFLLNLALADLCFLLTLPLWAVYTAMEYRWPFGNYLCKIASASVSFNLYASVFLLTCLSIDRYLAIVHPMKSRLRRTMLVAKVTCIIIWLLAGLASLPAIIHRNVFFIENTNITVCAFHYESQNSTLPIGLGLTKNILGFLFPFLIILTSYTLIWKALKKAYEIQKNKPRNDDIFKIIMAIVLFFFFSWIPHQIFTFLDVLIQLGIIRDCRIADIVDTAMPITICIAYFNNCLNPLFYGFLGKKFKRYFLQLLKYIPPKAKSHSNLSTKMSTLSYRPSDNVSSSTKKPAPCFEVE
T4 sequence (P50554 28-500): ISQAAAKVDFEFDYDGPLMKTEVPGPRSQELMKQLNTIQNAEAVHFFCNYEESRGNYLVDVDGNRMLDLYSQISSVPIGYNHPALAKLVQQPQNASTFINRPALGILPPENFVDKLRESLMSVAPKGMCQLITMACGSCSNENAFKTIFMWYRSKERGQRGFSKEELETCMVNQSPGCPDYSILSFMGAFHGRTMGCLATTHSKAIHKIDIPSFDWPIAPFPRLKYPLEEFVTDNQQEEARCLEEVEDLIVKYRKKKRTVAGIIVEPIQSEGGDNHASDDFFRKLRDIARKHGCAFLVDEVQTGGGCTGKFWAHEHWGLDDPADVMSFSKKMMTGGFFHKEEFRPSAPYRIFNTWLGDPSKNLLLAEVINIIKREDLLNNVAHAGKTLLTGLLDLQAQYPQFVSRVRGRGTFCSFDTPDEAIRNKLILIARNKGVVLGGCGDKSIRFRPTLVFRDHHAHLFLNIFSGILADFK
T9 sequence (Q96EB6 whole entry): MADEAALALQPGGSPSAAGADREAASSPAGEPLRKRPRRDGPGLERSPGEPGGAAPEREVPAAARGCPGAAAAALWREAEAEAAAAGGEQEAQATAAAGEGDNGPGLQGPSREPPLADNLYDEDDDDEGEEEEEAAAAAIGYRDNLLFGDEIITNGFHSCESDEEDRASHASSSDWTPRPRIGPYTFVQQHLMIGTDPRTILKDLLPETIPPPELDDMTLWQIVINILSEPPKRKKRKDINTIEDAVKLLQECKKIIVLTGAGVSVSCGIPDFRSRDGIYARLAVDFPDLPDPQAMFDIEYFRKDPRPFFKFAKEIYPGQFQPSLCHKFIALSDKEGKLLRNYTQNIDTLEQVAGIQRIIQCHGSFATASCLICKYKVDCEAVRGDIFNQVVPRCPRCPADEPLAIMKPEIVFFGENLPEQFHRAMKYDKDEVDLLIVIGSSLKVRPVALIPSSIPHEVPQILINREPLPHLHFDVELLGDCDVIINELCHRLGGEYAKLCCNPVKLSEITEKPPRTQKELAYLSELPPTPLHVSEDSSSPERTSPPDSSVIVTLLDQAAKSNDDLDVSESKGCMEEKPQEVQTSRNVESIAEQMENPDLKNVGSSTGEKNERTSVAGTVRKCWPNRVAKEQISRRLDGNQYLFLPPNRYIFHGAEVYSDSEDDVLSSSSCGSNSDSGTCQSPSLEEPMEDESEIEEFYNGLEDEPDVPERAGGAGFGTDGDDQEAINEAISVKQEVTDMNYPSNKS
T2 sequence (P18031 whole entry): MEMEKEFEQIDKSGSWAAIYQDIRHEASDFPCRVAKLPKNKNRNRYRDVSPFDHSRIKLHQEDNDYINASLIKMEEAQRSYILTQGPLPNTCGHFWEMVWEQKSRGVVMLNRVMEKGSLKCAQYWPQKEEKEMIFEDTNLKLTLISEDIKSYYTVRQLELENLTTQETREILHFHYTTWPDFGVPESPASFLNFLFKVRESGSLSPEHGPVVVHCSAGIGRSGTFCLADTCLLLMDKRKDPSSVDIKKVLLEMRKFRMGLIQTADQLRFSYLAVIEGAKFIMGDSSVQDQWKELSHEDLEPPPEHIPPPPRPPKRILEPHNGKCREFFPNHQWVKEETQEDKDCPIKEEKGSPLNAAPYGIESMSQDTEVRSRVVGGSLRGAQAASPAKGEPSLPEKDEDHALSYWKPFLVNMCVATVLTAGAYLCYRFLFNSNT
T8 sequence (Q96DB2 whole entry): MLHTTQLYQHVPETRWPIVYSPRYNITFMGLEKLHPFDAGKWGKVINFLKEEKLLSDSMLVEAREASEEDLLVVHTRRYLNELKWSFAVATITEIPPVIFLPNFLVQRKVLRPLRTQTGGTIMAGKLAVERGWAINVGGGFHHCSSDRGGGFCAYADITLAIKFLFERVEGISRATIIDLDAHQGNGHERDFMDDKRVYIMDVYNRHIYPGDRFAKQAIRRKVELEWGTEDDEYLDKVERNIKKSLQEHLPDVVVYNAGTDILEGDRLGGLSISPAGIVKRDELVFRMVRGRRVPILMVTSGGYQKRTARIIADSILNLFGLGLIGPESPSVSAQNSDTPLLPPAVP
T10 sequence (P21397 whole entry): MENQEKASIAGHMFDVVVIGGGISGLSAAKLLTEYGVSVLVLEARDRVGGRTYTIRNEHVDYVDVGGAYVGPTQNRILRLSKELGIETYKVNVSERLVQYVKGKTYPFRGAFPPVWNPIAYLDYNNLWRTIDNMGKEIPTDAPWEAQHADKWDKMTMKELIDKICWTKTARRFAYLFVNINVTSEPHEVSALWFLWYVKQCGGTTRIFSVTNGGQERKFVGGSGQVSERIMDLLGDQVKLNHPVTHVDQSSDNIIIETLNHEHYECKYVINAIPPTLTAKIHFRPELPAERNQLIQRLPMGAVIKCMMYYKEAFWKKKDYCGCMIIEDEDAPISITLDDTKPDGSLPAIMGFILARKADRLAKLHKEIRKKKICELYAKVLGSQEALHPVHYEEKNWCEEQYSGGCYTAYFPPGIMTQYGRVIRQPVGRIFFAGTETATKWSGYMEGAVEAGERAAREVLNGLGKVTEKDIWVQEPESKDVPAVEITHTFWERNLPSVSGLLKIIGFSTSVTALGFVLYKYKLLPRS
T6 sequence (P22303 32-614): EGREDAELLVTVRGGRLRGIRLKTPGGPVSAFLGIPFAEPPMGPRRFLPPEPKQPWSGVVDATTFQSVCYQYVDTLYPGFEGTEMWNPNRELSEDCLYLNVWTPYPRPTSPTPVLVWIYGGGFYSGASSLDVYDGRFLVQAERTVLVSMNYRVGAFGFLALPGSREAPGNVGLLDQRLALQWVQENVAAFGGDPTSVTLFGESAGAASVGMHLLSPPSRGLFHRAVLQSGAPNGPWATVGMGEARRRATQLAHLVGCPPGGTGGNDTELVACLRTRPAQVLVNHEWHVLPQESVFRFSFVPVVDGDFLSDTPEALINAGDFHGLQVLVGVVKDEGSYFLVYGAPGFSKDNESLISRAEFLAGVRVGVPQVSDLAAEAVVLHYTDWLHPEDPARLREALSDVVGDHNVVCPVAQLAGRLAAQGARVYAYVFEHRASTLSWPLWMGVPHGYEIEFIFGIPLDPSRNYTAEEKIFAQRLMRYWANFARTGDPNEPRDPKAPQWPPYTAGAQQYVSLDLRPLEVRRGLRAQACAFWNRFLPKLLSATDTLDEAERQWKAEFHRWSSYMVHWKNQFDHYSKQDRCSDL
T11 sequence (P27338 whole entry): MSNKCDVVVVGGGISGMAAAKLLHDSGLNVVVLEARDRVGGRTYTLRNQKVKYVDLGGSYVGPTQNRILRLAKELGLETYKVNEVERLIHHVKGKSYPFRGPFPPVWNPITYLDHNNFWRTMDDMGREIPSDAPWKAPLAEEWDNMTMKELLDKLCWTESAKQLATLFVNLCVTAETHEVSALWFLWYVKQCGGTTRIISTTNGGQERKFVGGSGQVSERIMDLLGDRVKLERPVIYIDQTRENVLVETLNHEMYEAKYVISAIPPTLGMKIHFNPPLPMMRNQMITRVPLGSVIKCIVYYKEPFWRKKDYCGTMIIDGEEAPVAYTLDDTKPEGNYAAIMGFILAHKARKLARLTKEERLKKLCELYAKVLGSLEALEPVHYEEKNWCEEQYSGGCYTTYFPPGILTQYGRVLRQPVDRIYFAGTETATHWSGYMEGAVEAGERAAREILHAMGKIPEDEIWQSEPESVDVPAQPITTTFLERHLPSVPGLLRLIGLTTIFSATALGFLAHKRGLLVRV
T5 sequence (P04177 whole entry): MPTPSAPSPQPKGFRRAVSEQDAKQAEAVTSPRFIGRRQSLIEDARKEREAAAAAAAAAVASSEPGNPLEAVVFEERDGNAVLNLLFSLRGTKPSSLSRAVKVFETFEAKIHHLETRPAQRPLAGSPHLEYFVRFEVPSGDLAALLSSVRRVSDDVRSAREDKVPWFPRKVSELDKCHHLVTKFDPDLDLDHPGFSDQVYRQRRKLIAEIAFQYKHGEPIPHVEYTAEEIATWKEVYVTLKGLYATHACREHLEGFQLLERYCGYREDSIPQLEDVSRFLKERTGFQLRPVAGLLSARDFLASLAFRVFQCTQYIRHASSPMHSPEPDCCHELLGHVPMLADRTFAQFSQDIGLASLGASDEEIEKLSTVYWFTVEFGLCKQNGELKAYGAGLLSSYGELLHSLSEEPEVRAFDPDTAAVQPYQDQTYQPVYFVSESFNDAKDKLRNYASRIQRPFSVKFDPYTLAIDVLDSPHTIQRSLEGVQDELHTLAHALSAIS

**Q.** Which results are given for `Cc1ccc(-n2nc3c(=O)n(CCCC(=O)NCC(C)c4ccccc4)nc(C)c3c2C)cc1` (centres unmarked) [2k]?
**A.** metabolism in mice [1]: rapidly metabolized; % Inhibition of Control Values [2]: 2%; time after administration at which decreasing cell indices indicated cell death [3]: ~40 h; onset of cell death after treatment ([4]; 24 μM): ~13 h; time after administration at which decreasing cell indices indicated cell death ([4]; doses higher than 3 μM): ~30 h; effect on growth [5]: strong growth inhibition but not cell death; % Inhibition of Control Values [6]: 7%; EGF-induced Erk phosphorylation ([7]; PANC-1, 20 μM, longer incubation times (>3 h)): remained unaffected; EGF-induced Erk phosphorylation ([7]; PANC-1, 1 h, 5 μM Deltarasin or 20 μM Deltazinone 1, 5 min EGF): did not significantly affect; inhibition at 5 µM [8]: -4%; inhibition at 5 µM [9]: 2%; % Inhibition of Control Specific Binding [10]: 16%; Tmax ([11]; ip): 4.8 min; C0 ([11]; iv): 3380 ng/mL; Vd ([11]; iv): 1.18 L/kg; clearance ([11]; iv): 30.8 mL/min/kg; AUC(0-inf) ([11]; iv, AUC 0-inf): 1620 ng·h/mL; AUC(0-t) ([11]; iv, AUC 0-t): 1620 ng·h/mL; half-life ([11]; iv, t1/2): 21 min; inhibition at 5 µM [12]: 9%; cell death in time-lapse microscopy [13]: cell death; inhibition at 5 µM [14]: 0%

**Q.** What does the source list for `c1ccc(Cn2c(-c3ccc(OC[C@H](C4CCNCC4)n4c(-c5ccccc5)nc5ccccc54)cc3)nc3ccccc32)cc1` [Deltarasin, reference compound]?
**A.** IC50 [15, 26]: 4.83 µM; Hill coefficient ([15]; Panc-Tu-I, CellTiter-Glo, n = 14): -5.3; IC50 [16, 26]: 6.67 µM; Hill coefficient [16]: -10.8; % Inhibition of Control Values [2]: 2%; onset of detectable cell death post treatment ([4]; 5 μM): ~9 h; inhibition at 5 µM [17]: 24%; inhibition at 5 µM [18]: 9%; inhibition at 5 µM [19]: 6%; inhibition at 5 µM [8]: 97%; % Inhibition of Control Specific Binding [10]: 13%; inhibition at 5 µM [20]: 37%; inhibition at 5 µM [21]: 4%; inhibition at 5 µM [22]: 1%; inhibition at 5 µM [12]: 41%; inhibition at 5 µM [23]: 7%; cell death in time-lapse microscopy [13]: cell death; interaction between mCitrine-KRas and mCherry-PDEδ [24]: abolished the interaction; inhibition at 5 µM [25]: 3%
